Results taken from patent publication US20080188528A1, “Modulators of C3a receptor and methods of use thereof” (priority 2006, published 2008).
Where a name gives a salt, the structure may show the parent alone.

Biological target: T1, human C3a receptor (C3aR) (Homo sapiens, UniProt Q16581)
T1 construct: expressed in transfected cells
T1 sequence (Q16581 1-482): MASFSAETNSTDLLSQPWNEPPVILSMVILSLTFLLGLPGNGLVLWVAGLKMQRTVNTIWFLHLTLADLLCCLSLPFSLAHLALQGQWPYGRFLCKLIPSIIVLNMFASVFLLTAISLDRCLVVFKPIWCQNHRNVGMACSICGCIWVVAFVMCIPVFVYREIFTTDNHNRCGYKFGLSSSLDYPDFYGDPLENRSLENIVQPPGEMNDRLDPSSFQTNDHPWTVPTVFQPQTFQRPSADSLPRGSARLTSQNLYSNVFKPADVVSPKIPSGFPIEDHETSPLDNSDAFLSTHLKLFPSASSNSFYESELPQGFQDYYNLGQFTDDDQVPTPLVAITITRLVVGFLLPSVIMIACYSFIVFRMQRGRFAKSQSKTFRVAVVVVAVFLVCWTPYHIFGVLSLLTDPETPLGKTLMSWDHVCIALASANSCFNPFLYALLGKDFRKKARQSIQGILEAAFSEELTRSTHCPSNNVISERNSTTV
Assay: Inhibition of human [125I]-C3a binding to human C3a receptor (SPA, membranes of HEK293 cells expressing recombinant C3aR)
Conditions: 0.1 nM [125I]-C3a, 3 hours at room temperature; Table 2
Protocol: Inhibition of human [^125I]-C3a binding to human C3a receptor
Binding of human [^125I]-C3a to human C3a receptor (C3aR) was done using cell membranes from HEK293 cells stably expressing recombinant C3aR, in a homogeneous scintillation proximity assay (SPA). The C3aR cell membranes were pre-coupled over-night at 4° C. to WGA-PVT SPA beads (Amersham) at a ratio of 10 μg cell membrane to 0.5 mg beads/assay. Assay was performed in 96-well microtiter Optiplates (Packard) by mixing coupled beads and 0.1 nM [^125I]-C3a (2200 Ci/mmol, Perkin Elmer Life Sciences), in a total volume of […] binding buffer (20 mM HEPES, pH 7.4, 125 mM NaCl, 5 mM KCl, 1 mM CaCl2, 1 mM MgCl2, 0.25% BSA, 0.2% CHAPS). Test compounds were diluted in DMSO and were tested for their inhibitory potential in the assay (final concentration≦1% DMSO). Incubation was done for 3 hours at room temperature followed by reading in a TopCount scintillation microplate reader. Non-specific binding was determined by adding 1 μM unlabeled C3a (Calbiochem) to the assay mixture. Calculation of the IC50 was done as above using a nonlinear least square fitting program, with Graphpad Prism.

Row | Structure (SMILES) | IC50 [nM]
1 | Cc1ccccc1C(c1ccccc1C)n1cccc(C(=O)N[C@@H](CCCNC(=N)N)C(=O)O)c1=O [Compound 42, (2S)-2-[({1-[bis(2-methylphenyl)methyl]-2-oxo-1,2-dihydropyridin-3-yl}carbonyl)amino]-5-carbamimidamidopentanoic acid•TFA] | < 50
2 | Cc1cccc(C(c2cccc(C)c2)n2cccc(C(=O)N[C@@H](CCCNC(=N)N)C(=O)O)c2=O)c1 [Compound 43, (2S)-2-[({1-[bis(3-methylphenyl)methyl]-2-oxo-1,2-dihydropyridin-3-yl}carbonyl)amino]-5-carbamimidamidopentanoic acid] | < 50
3 | N=C(N)NCCC[C@H](NC(=O)c1cccn(C(c2ccc(F)cc2)c2ccc(F)cc2)c1=O)C(=O)O [Compound 44, (2S)-2-[({1-[bis(4-fluorophenyl)methyl]-2-oxo-1,2-dihydropyridin-3-yl}carbonyl)amino]-5-carbamimidamidopentanoic acid•TFA] | < 50
4 | N=C(N)NCCC[C@H](NC(=O)c1cccn(C(c2cccc(F)c2)c2cccc(F)c2)c1=O)C(=O)O [Compound 45, (2S)-2-[({1-[bis(3-fluorophenyl)methyl]-2-oxo-1,2-dihydropyridin-3-yl}carbonyl)amino]-5-carbamimidamidopentanoic acid•TFA] | < 50
5 | N=C(N)NCCC[C@H](NC(=O)c1cccn(C(c2ccccc2F)c2ccccc2F)c1=O)C(=O)O [Compound 46, (2S)-2-[({1-[bis(2-fluorophenyl)methyl]-2-oxo-1,2-dihydropyridin-3-yl}carbonyl)amino]-5-carbamimidamidopentanoic acid•TFA] | < 50
6 | Cc1cc(C)cc(C(c2cc(C)cc(C)c2)n2cccc(C(=O)N[C@@H](CCCNC(=N)N)C(=O)O)c2=O)c1 [Compound 47, (2S)-2-[({1-[bis(3,5-dimethylphenyl)methyl]-2-oxo-1,2-dihydropyridin-3-yl}carbonyl)amino]-5-carbamimidamidopentanoic acid•TFA] | < 50
7 | N=C(N)NCCC[C@H](NC(=O)c1cccn(C(c2cccc(C(F)(F)F)c2)c2cccc(C(F)(F)F)c2)c1=O)C(=O)O [Compound 48, (2S)-2-{[(1-{bis[3-(trifluoromethyl)phenyl]methyl}-2-oxo-1,2-dihydropyridin-3-yl)carbonyl]amino}-5-carbamimidamidopentanoic acid•TFA] | < 50
8 | N=C(N)NCCC[C@H](NC(=O)c1cccn(C(c2ccc(C(F)(F)F)cc2)c2ccc(C(F)(F)F)cc2)c1=O)C(=O)O [Compound 49, (2S)-2-{[(1-{bis[4-(trifluoromethyl)phenyl]methyl}-2-oxo-1,2-dihydropyridin-3-yl)carbonyl]amino}-5-carbamimidamidopentanoic acid•TFA] | 50 to 500
9 | CC(c1ccccc1)n1cccc(C(=O)N[C@@H](CCCNC(=N)N)C(=O)O)c1=O (stereo partly drawn) [Compound 50, (2S)-5-carbamimidamido-2-({[2-oxo-1-(1-phenylethyl)-1,2-dihydropyridin-3-yl]carbonyl}amino)pentanoic acid•TFA] | < 50

Same assay, conditions: 0.1 nM [125I]-C3a, 3 hours at room temperature; Table 3

Row | Structure (SMILES) | IC50 [nM]
10 | N=C(N)NCCC[C@H](NC(=O)c1ccc(Cc2ccccc2)cc1)C(=O)O [Compound 51, (2S)-2-[(4-benzylbenzoyl)amino]-5-carbamimidamidopentanoic acid•TFA] | 50 to 500
11 | N=C(N)NCCC[C@H](NC(=O)c1cccc(Cc2ccccc2)c1)C(=O)O [Compound 52, (2S)-2-[(3-benzylbenzoyl)amino]-5-carbamimidamidopentanoic acid•TFA] | 50 to 500
12 | N=C(N)NCCC[C@H](NC(=O)c1ccn(Cc2ccccc2)c(=O)c1)C(=O)O [Compound 53, (2S)-2-{[(1-benzyl-2-oxo-1,2-dihydropyridin-4-yl)carbonyl]amino}-5-carbamimidamidopentanoic acid•TFA] | 50 to 500
13 | N=C(N)NCCC[C@H](NC(=O)c1ccc(=O)n(Cc2ccccc2)c1)C(=O)O [Compound 54, (2S)-2-{[(1-benzyl-6-oxo-1,6-dihydropyridin-3-yl)carbonyl]amino}-5-carbamimidamidopentanoic acid•TFA] | 50 to 500
14 | N=C(N)NCCC[C@H](NC(=O)c1cccc(=O)n1Cc1ccccc1)C(=O)O [Compound 55, (2S)-2-{[(1-benzyl-6-oxo-1,6-dihydropyridin-2-yl)carbonyl]amino}-5-carbamimidamidopentanoic acid•TFA] | 50 to 500
15 | N=C(N)NCCC[C@H](NC(=O)c1ccn(C(c2ccccc2)c2ccccc2)c(=O)c1)C(=O)O [Compound 56, (2S)-5-carbamimidamido-2-({[1-(diphenylmethyl)-2-oxo-1,2-dihydropyridin-4-yl]carbonyl}amino)pentanoic acid•TFA] | 50 to 500
16 | N=C(N)NCCC[C@H](NC(=O)c1ccc(=O)n(C(c2ccccc2)c2ccccc2)c1)C(=O)O [Compound 57, (2S)-5-carbamimidamido-2-({[1-(diphenylmethyl)-6-oxo-1,6-dihydropyridin-3-yl]carbonyl}amino)pentanoic acid•TFA] | 500 to 20000
17 | CC(C)(C(=O)NC(c1ccccc1)c1ccccc1)C(=O)N[C@@H](CCCNC(=N)N)C(=O)O [Compound 58, (2S)-5-carbamimidamido-2-({3-[(diphenylmethyl)amino]-2,2-dimethyl-3-oxopropanoyl}amino)pentanoic acid•TFA] | < 50

Same assay, conditions: 0.1 nM [125I]-C3a, 3 hours at room temperature; Table 4

Row | Structure (SMILES) | IC50 [nM]
18 | NCCCC[C@H](NC(=O)c1cccn(Cc2ccccc2)c1=O)C(=O)O [Compound 60, (2S)-6-amino-2-{[(1-benzyl-2-oxo-1,2-dihydropyridin-3-yl)carbonyl]amino}hexanoic acid•TFA] | 500 to 20000
19 | Cc1ccc(S(=O)(=O)NCCCC[C@H](NC(=O)c2cccn(Cc3ccccc3)c2=O)C(=O)O)cc1 [Compound 61, (2S)-2-{[(1-benzyl-2-oxo-1,2-dihydropyridin-3-yl)carbonyl]amino}-6-{[(4-methylphenyl)sulfonyl]amino} hexanoic acid] | 500 to 20000
20 | Cc1ccc(S(=O)(=O)NCCCC[C@H](NC(=O)c2cccn(C(c3ccccc3)c3ccccc3)c2=O)C(=O)O)cc1 [Compound 62, (2S)-2-({[1-(diphenylmethyl)-2-oxo-1,2-dihydropyridin-3-yl]carbonyl}amino)-6-{[(4-methylphenyl)sulfonyl]amino}hexanoic acid] | 50 to 500
21 | N=C(N)NCCCC[C@H](NC(=O)c1cccn(Cc2ccccc2)c1=O)C(=O)O [Compound 63, (2S)-2-{[(1-benzyl-2-oxo-1,2-dihydropyridin-3-yl)carbonyl]amino}-6-carbamimidamidohexanoic acid•TFA] | 500 to 20000
22 | NC(=O)CC[C@H](NC(=O)c1cccn(C(c2ccccc2)c2ccccc2)c1=O)C(=O)O [Compound 64, (2S)-5-amino-2-({[1-(diphenylmethyl)-2-oxo-1,2-dihydropyridin-3-yl]carbonyl}amino)-5-oxopentanoic acid] | 500 to 20000
23 | N=C(N)NCC[C@H](NC(=O)c1cccn(C(c2ccccc2)c2ccccc2)c1=O)C(=O)O [Compound 65, (2S)-4-carbamimidamido-2-({[1-(diphenylmethyl)-2-oxo-1,2-dihydropyridin-3-yl]carbonyl}amino)butanoic acid•TFA] | 50 to 500
24 | CCOC(=O)N=C(NC)NCC[C@H](NC(=O)c1cccn(C(c2ccccc2)c2ccccc2)c1=O)C(=O)O [Compound 66, (2S)-2-({[1-(diphenylmethyl)-2-oxo-1,2-dihydropyridin-3-yl]carbonyl}amino)-4-{[[(ethoxycarbonyl)amino](methylamino)methylene]amino}butanoic acid] | 500 to 20000
